Reference: patent US11999727B2 (Tango Therapeutics, Inc., priority 2020, dated 2024)

Assays:
[1] = system: HAP1 MTAP-intact cell line; assay: SDMA in-cell western assay, HAP1 MTAP-intact; format: cell-based; conditions: Homo sapiens, HAP1, SDMA in-cell western, HAP1 MTAP-intact; read-out: MTAP HAP1 intact IC50
Outline: (§1)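 Readout: in-cell western detection of SDMA. Cells: HAP1 expressing endogenous MTAP and an MTAP-null HAP1 counterpart. Output: IC50.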

[2] = system: HAP1 MTAP-deleted cell line; assay: Viability assay, MTAP-deleted cell line; format: cell-based; conditions: Homo sapiens, HAP1, viability IC50, MTAP-deleted cell line; read-out: HAP1 MTAP deleted viability
From the text: Table 1 additionally indicates IC50 values in a viability assay for the MTAP-deleted cell line (column 10), indicating the effect of treatment with compound on cell survival.

[3] = system: HAP1 MTAP-deleted cell line; assay: SDMA in-cell western assay, HAP1 MTAP-deleted; format: cell-based; conditions: for IC50: Homo sapiens, HAP1, SDMA in-cell western, HAP1 MTAP-deleted, read-out: HAP 1 MTAP deleted IC50; for MTAP intact/deleted ratio: IC50 ratio HAP1 MTAP-intact / HAP1 MTAP-deleted, SDMA in-cell western
Outline: as §1

PRMT5 [4] = molecular target: T1, PRMT5 (Homo sapiens, UniProt O14744); assay: PRMT5 biochemical IC50 assay with MTA as cofactor; conditions: PRMT5, MTA as cofactor; read-out: MTA IC50
T1 construct: purchased Viva (custom protein)
T1 sequence (O14744 whole entry): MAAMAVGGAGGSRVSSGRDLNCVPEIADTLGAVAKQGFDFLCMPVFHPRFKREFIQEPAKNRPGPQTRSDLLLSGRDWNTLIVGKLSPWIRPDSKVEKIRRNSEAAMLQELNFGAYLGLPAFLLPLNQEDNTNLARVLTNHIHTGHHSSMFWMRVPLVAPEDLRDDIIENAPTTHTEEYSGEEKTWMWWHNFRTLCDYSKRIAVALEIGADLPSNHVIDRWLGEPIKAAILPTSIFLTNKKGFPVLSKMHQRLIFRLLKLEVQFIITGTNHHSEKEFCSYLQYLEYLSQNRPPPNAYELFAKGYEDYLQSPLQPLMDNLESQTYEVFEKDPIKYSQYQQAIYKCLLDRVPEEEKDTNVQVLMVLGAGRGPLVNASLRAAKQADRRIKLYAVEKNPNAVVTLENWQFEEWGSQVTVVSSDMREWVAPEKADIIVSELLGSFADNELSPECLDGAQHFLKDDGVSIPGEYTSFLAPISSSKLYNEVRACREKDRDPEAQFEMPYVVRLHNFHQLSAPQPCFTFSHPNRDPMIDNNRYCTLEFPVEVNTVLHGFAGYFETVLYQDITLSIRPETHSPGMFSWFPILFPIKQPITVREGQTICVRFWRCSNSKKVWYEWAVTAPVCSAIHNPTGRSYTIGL
T1 sequence (Q9BQA1 whole entry partner): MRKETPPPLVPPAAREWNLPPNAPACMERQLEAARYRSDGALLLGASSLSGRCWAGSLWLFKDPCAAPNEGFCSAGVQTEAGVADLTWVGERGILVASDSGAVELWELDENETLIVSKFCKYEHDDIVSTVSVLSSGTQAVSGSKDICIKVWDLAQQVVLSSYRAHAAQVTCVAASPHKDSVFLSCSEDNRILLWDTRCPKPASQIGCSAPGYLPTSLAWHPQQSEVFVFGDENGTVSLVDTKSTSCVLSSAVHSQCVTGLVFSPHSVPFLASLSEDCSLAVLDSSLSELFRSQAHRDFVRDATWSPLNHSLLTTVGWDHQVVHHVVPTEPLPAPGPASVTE

PRMT5 [5] = molecular target: T1, PRMT5; assay: PRMT5 biochemical IC50 assay with SAM as cofactor; conditions: PRMT5, SAM as cofactor; read-out: SAM IC50
PRMT5 [6] = molecular target: T1, PRMT5; assay: PRMT5 biochemical IC50 assay with no cofactor; conditions: PRMT5, no cofactor; read-out: No Cofactor/rel IC50
From the text: Table 1 indicates IC50 values (μM) against PRMT5 for exemplary compounds in the presence of SAM as cofactor, with no cofactor, and with MTA as cofactor, respectively (columns 4-6). […] Ki values can be calculated from the IC50 values as described in the Examples section. As detailed in the Examples section, for the assay performed in the presence of SAM, IC50=Ki×1.5 (Ki=IC50/1.5).

SMILES	IC50 [1]	IC50 [2]	IC50 [3]	MTAP intact/deleted ratio [3]	IC50 (PRMT5 [4])	IC50 (PRMT5 [5])	IC50 (PRMT5 [6])
C[C@H]1CC[C@@H](c2cc(F)cc(Cl)c2)N(C(=O)C(=O)Nc2cncc(C(N)=O)c2)C1 (single isomer, unassigned) [Compound 624]	> 1000 nM	> 10000 nM	> 1000 nM	B (an IC50 ratio greater than or equal to 3 fold but lower than 10 fold)	> 500 nM	> 500 nM	> 500 nM
C[C@@H]1CC[C@H](c2cc(F)cc(Cl)c2)N(C(=O)C(=O)Nc2cncc(C(N)=O)c2)C1 (single isomer, unassigned) [Compound 625]	> 1000 nM	> 10000 nM	100 to 1000 nM	A (an IC50 ratio greater than or equal to 10 fold)	50 to 500 nM	50 to 500 nM	> 500 nM
C[C@H]1CC[C@H](c2ccc(-c3cc[nH]n3)cc2)N(C(=O)C(=O)Nc2cncc(C(N)=O)c2)C1 (single isomer, unassigned) [Compound 626]	> 1000 nM	1000 to 10000 nM	< 100 nM	A (an IC50 ratio greater than or equal to 10 fold)	50 to 500 nM	50 to 500 nM	50 to 500 nM
C[C@@H]1CC[C@@H](c2ccc(-c3cc[nH]n3)cc2)N(C(=O)C(=O)Nc2cncc(C(N)=O)c2)C1 (single isomer, unassigned) [Compound 627]	> 1000 nM	> 10000 nM	100 to 1000 nM	A (an IC50 ratio greater than or equal to 10 fold)	> 500 nM	> 500 nM	> 500 nM
Cc1cc(NC(=O)C(=O)N2C[C@H](C)CC[C@H]2c2ccc(-c3cn[nH]c3)cc2)cnc1N (single isomer, unassigned) [Compound 628]	100 to 1000 nM	< 1000 nM	< 100 nM	A (an IC50 ratio greater than or equal to 10 fold)	50 to 500 nM	50 to 500 nM	< 50 nM
Cc1cc(NC(=O)C(=O)N2C[C@@H](C)CC[C@@H]2c2ccc(-c3cn[nH]c3)cc2)cnc1N (single isomer, unassigned) [Compound 629]	> 1000 nM	> 10000 nM	> 1000 nM	B (an IC50 ratio greater than or equal to 3 fold but lower than 10 fold)	> 500 nM	> 500 nM	> 500 nM
Cc1cc(NC(=O)C(=O)N2C[C@H](C)CC[C@H]2c2ccc(NS(C)(=O)=O)cc2)cnc1C (single isomer, unassigned) [Compound 630]	> 1000 nM	> 10000 nM	100 to 1000 nM	A (an IC50 ratio greater than or equal to 10 fold)	> 500 nM	> 500 nM	> 500 nM
Cc1cc(NC(=O)C(=O)N2C[C@H](C)CC[C@H]2c2ccc3[nH]ncc3c2)cnc1C (single isomer, unassigned) [Compound 631]	> 1000 nM	> 10000 nM	> 1000 nM	C (an IC50 ratio of less than 3 fold)	> 500 nM	> 500 nM	> 500 nM
Cc1cc(NC(=O)C(=O)N2C[C@@H](C)CC[C@@H]2c2ccc3sccc3c2)cnc1N (single isomer, unassigned) [Compound 634]	100 to 1000 nM	< 1000 nM	< 100 nM	A (an IC50 ratio greater than or equal to 10 fold)	< 50 nM	< 50 nM	< 50 nM
C[C@H]1CC[C@H](c2ccc3[nH]ncc3c2F)N(C(=O)C(=O)Nc2cncc(C(N)=O)c2)C1 (single isomer, unassigned) [Compound 637]	> 1000 nM	> 10000 nM	100 to 1000 nM	A (an IC50 ratio greater than or equal to 10 fold)	> 500 nM	> 500 nM	> 500 nM
C[C@H]1CC[C@H](c2cc(Cl)cc(C(F)(F)F)c2)N(C(=O)C(=O)Nc2cncc(C(N)=O)c2)C1 (single isomer, unassigned) [Compound 646]	> 1000 nM	1000 to 10000 nM	100 to 1000 nM	A (an IC50 ratio greater than or equal to 10 fold)	< 50 nM	< 50 nM	50 to 500 nM
Cc1ccc([C@@H]2CC[C@@H](C)CN2C(=O)C(=O)Nc2cncc(C(N)=O)c2)cn1 (single isomer, unassigned) [Compound 654]	> 1000 nM	1000 to 10000 nM	100 to 1000 nM	A (an IC50 ratio greater than or equal to 10 fold)	< 50 nM	50 to 500 nM	50 to 500 nM
C[C@H]1CC[C@H](c2ccc(C(F)(F)F)c(Cl)c2)N(C(=O)C(=O)Nc2cncc(C(N)=O)c2)C1 (single isomer, unassigned) [Compound 655]	> 1000 nM	1000 to 10000 nM	100 to 1000 nM	A (an IC50 ratio greater than or equal to 10 fold)	< 50 nM	< 50 nM	50 to 500 nM
Cc1cc(NC(=O)C(=O)N2C[C@@H](C)CC[C@@H]2c2ccc3c(c2)C(=O)NC3)cnc1N (single isomer, unassigned) [Compound 657]	100 to 1000 nM	< 1000 nM	< 100 nM	A (an IC50 ratio greater than or equal to 10 fold)	< 50 nM	50 to 500 nM	< 50 nM
Cc1cc(NC(=O)C(=O)N2C[C@H](C)CC[C@H]2c2cc(F)cc(Cl)c2)cnc1N (single isomer, unassigned) [Compound 659]	100 to 1000 nM	< 1000 nM	< 100 nM	A (an IC50 ratio greater than or equal to 10 fold)	< 50 nM	50 to 500 nM	< 50 nM
Cc1cc(NC(=O)C(=O)N2C[C@@H](C)CC[C@@H]2c2cc(Cl)cc(Cl)c2)cnc1N (single isomer, unassigned) [Compound 660]	> 1000 nM	> 10000 nM	> 1000 nM	B (an IC50 ratio greater than or equal to 3 fold but lower than 10 fold)	50 to 500 nM	> 500 nM	> 500 nM
C[C@@H]1CC[C@@H](c2cc(F)c3[nH]ncc3c2)N(C(=O)C(=O)Nc2cncc(C(N)=O)c2)C1 (single isomer, unassigned) [Compound 663]	> 1000 nM	1000 to 10000 nM	< 100 nM	A (an IC50 ratio greater than or equal to 10 fold)	< 50 nM	50 to 500 nM	< 50 nM
Cc1cc(NC(=O)C(=O)N2C[C@@H](C)CC[C@@H]2c2cc(Cl)cc(C(F)(F)F)c2)cnc1N (single isomer, unassigned) [Compound 665]	> 1000 nM	1000 to 10000 nM	100 to 1000 nM	A (an IC50 ratio greater than or equal to 10 fold)	< 50 nM	50 to 500 nM	50 to 500 nM
COc1ncc(NC(=O)C(=O)N2C[C@H](C)CC[C@H]2c2ccc3c(c2)CCC(=O)N3)cc1C(N)=O (single isomer, unassigned) [Compound 674]	100 to 1000 nM	< 1000 nM	< 100 nM	A (an IC50 ratio greater than or equal to 10 fold)	< 50 nM	50 to 500 nM	< 50 nM
Cc1cc(NC(=O)C(=O)N2C[C@H](C)CC[C@H]2c2ccc(-c3ccn[nH]3)cc2)cnc1N (single isomer, unassigned) [Compound 675]	> 1000 nM	> 10000 nM	> 1000 nM	B (an IC50 ratio greater than or equal to 3 fold but lower than 10 fold)	50 to 500 nM	> 500 nM	> 500 nM
Cc1cc(NC(=O)C(=O)N2C[C@@H](C)CC[C@@H]2c2ccc(-c3ccn[nH]3)cc2)cnc1N (single isomer, unassigned) [Compound 676]	100 to 1000 nM	< 1000 nM	< 100 nM	B (an IC50 ratio greater than or equal to 3 fold but lower than 10 fold)	< 50 nM	50 to 500 nM	< 50 nM
Cc1cc(NC(=O)C(=O)N2C[C@H](C)CC[C@H]2c2cc(Cl)cc(Cl)c2)cnc1N (single isomer, unassigned) [Compound 681]	> 1000 nM	1000 to 10000 nM	< 100 nM	A (an IC50 ratio greater than or equal to 10 fold)	< 50 nM	50 to 500 nM	< 50 nM
C[C@H]1CN(C(=O)C(=O)Nc2cncc(C(N)=O)c2)[C@H](c2ccc(F)c(F)c2)CC1(F)F (single isomer, unassigned) [Compound 683]	> 1000 nM	1000 to 10000 nM	100 to 1000 nM	A (an IC50 ratio greater than or equal to 10 fold)	< 50 nM	50 to 500 nM	50 to 500 nM
